Results on two compounds are retold here after publication PMC12677842, “Unveiling the Potential of a New β‐Cyclodextrin‐Suxibuzone Conjugate in Proteasome Regulation” (Chemmedchem, 2025).

The target in test [1] is T1, human 20S proteasome (h20S core particle).
T1 construct: gene PSMB5
As to the kind of experiment: fluorogenic AMC peptide cleavage by purified h20S (activation; Ch-L EC50 […], T-L EC50 […]). It is filed as biochemical.

In test [2] the test system is T1, human 20S proteasome (h20S core particle). Put plainly: fluorogenic AMC peptide cleavage by h20S at […] (activation similar to suxibuzone). It is filed as biochemical.

By EC50 is commonly meant the concentration at which the effect is half-maximal. Low values mean higher potency in that assay, high ones lower potency in that assay.

In turn, `CCCCC1(COC(=O)CCC(=O)O)C(=O)N(c2ccccc2)N(c2ccccc2)C1=O` [SB, suxibuzone] gave an EC50 in test [1] of 4.4 ± 0.4 µM.

Take `CCCCC1(COC(=O)CCC(=O)NCCO)C(=O)N(c2ccccc2)N(c2ccccc2)C1=O` [SB-ETA]: in test [2], the “fluorogenic AMC peptide cleavage by h20S at 5 and 10 uM (activation similar to s)” value is reported as “both test compounds had activity similar to suxibuzone, with no statistically significant difference”.
